Experimental data reported in PMC7725824, “Fused isoselenazolium salts suppress breast cancer cell growth by dramatic increase in pyruvate-dependent mitochondrial ROS production” (Scientific Reports, 2020).

What was measured:
[1] = Cytotoxicity assay (MTT), 3T3; type: cell-based, mouse; settings: mouse, NIH 3T3 cells (fibroblasts), normal cell line, mean ± S.D., 3 experiments
Protocol: (§1) MCF-7 (human breast adenocarcinoma, estrogen-positive) and 4T1 (mouse carcinoma), as breast cancer cell lines, and H9C2 (rat cardiomyoblasts), NIH 3T3 (mouse fibroblasts), HEKa (primary human epidermal keratinocytes), MDCK (Madin-Darby Canine Kidney) cells, and A7r5 (rat vascular smooth muscle cells), as normal cell lines, were obtained from the American Type Culture Collection [ATCC] collection for use in the current study. All cell lines were cultured in Dulbecco's modified Eagle's medium (DMEM) containing 10% fetal bovine serum (FBS) and 4 mM L-glutamine at 37 °C and 5% CO2.
(§2) Cell viability was assessed by the addition of 3-(4,5-dimethylthiazol-2-yl)-2,5-diphenyltetrazolinium bromide (MTT). Briefly, cells were seeded (2–6 × 10^4 cells/ml) in 96-well plates and allowed to attach for 24 h. Solutions of test compounds were prepared and serially diluted to obtain the appropriate concentrations. The cells were treated with the test compounds at different concentrations (0.032–100 µM) and incubated for 48 h at 37 °C and 5% CO2. Then, the culture medium was removed, and medium containing 0.2 mg/ml MTT was added. After 3 h (37 °C, 5% CO2), the MTT-containing medium was removed, and 200 μl of dimethyl sulfoxide (DMSO) was immediately added to each sample. The absorbance was assessed at 540 nm using a Tecan multiplate reader Infinite 1000 (Austria). The half-maximal inhibitory concentration (IC50) of each compound was calculated using Graph Pad Prism 3.0.

[2] = Cytotoxicity assay (MTT), H9C2; type: cell-based, rat; settings: rat, H9C2 cells (cardiomyoblasts); normal cell line; MTT, 48 h; mean ± S.D., 3 experiments
Protocol: as §1, §2

MCF-7 cells [3] = test: NAD+/NADH assay kit measurement; type: cell-based, human; settings: 2 μM, 10 min, vs control
Protocol: The NAD^+/NADH ratio in the MCF-7 cells exposed to the test compounds (2 μM) for 10 min was measured using an NAD^+/NADH assay kit (Abcam, ab65348) according to the manufacturer's instructions.

MCF-7 cells [4] = test: Fluorometric measurement of NMN level; type: cell-based, human; settings: 2 μM, 10 min, vs control
Protocol: For fluorometric measurements of NMN, a previously described method was used, with minor modifications. […] The cells were washed with PBS and then lysed by adding 200 μl of 1 M HClO4 to each well and incubating at 4 °C for 20 min. The cells were harvested by scraping and transferred to a tube. The extracts were neutralized with 100 μl of 2 M KOH for 5 min at room temperature and 50 μl of 0.1 M bicine (pH 7.4) was added. The samples were centrifuged at 14 000 × g for 10 min at 4 °C, and the supernatant was collected for further analysis. The protein concentration in each sample was determined using a Bio-Rad protein assay kit. […] The reaction was incubated for 2 min at 4 °C, after which 45 μl of 88% formic acid was added, and the samples were incubated for another 10 min at 37 °C on a shaker. The fluorescence was measured using a Tecan multiplate reader Infinite 1000 (Austria) with excitation at 382 nm and emission at […].

MCF-7 = test: Cytotoxicity assay (MTT), MCF-7; type: cell-based, human; settings: Homo sapiens, MCF7; breast cancer cell line; MTT, 48 h; mean ± S.D., 3 experiments; read-out: Cytotoxicity, IC50, MCF-7
Protocol: as §1, §2

[5] = Cytotoxicity assay (MTT), MDCK; type: cell-based, Canine; settings: dog, MDCK cells, normal cell line, mean ± S.D., 3 experiments
Protocol: as §1, §2

NAMPT = biological target: T1, NAMPT (Homo sapiens, UniProt P43490); test: NAMPT activity assay in lysates of treated cells; type: cell-based; settings: MCF-7 cells, 2 µM, 4 h
T1 construct: endogenous in cells; host or cells: MCF-7
Protocol: MCF-7 cells (5 × 10^6 cells per well) were grown in a 6-well plate and then incubated with the test compounds (2 µM) for 4 h. The cells were harvested by scraping, washed with PBS and lysed with 50 mM Tris–HCl (pH 7.5), 150 mM NaCl, 1 mM DTT, 1 mM PMSF, 0.002 mg/ml leupeptin and pepstatin (2 × 10^6 cells in 100 µl buffer solution). After three freeze–thaw cycles at -80 °C, the cell extract was centrifuged at 15 000 × g for 30 min at 4 °C. The supernatant was collected, and the protein concentrations were determined using a Bio-Rad protein assay kit. The NAMPT enzyme reaction was performed as described previously. The enzymatic reaction mixture contained 50 mM Tris–HCl buffer (pH 7.5), 12 mM MgCl2, 2 mM DTT, 0.02% BSA, 2.5 mM ATP, 0.8 mM PRPP, and 50 μM nicotinamide. […] The concentrations of the NAMPT reaction product, nicotinamide mononucleotide (NMN), in the samples were determined using a described method. […] The fluorescence was measured using a Tecan multiplate reader Infinite 1000 (Austria) with excitation at 382 nm and emission at 445 nm. The NMN concentrations in the reaction mixtures were determined by comparison with NMN standards in the range of 0.16–20 μM. The NAMPT activity in the cell lysates is expressed as the concentration of NMN in μmol per mg protein per hour based on standard NMN readings.

4T1 = test: Cytotoxicity assay (MTT), 4T1; type: cell-based, mouse
Protocol: as §1, §2

[6] = Cytotoxicity assay (MTT), HEKa; type: cell-based, human; settings: human, HEKa cells (primary epidermal keratinocytes), normal cell line, mean ± S.D., 3 experiments
Protocol: as §1, §2

permeabilized 4T1 cells = test: High-resolution fluorespirometry (respiration and H2O2 flux); type: cell-based, mouse
Protocol: High-resolution fluorespirometry was performed using an Oxygraph-2 k system (OROBOROS INSTRUMENTS, Austria). All experiments were performed at 37 °C in MiR05 medium (110 mM sucrose, 60 mM K-lactobionate, 0.5 mM EGTA, 3 mM MgCl2, 20 mM taurine, 10 mM KH2PO4, 20 mM HEPES, pH 7.1 at 30 °C, and 0.1% BSA essentially fatty acid free). The medium was reoxygenated when the oxygen concentration dropped to 80 µM. H2O2 flux was simultaneously measured with respirometry in the O2k-Fluorometer using the H2O2-sensitive probe Ampliflu Red (AmR) as described. The H2O2/O flux ratio [%] was calculated as the H2O2 flux/(0.5 O2 flux).
In permeabilized 4T1 cells, pyruvate + malate (5 and 2 mM) or glutamate + malate (10 and 2 mM) were used to determine complex I (CI)-linked LEAK (L) respiration. ADP was added to a concentration of 5 mM to determine the oxidative phosphorylation-dependent respiration (OXPHOS state). Succinate (10 mM, complex II (CII) substrate) was then added to reconstitute convergent CI&II-linked respiration. Rotenone (0.5 µM, an inhibitor of complex I) and antimycin A (2.5 µM, an inhibitor of complex III) were added to determine the CII-linked OXPHOS capacity and residual oxygen consumption (ROX), respectively. Compound 6 was added to permeabilized cells after the addition of the respective substrates in the OXPHOS state (titration experiment) or in the LEAK state. In addition, compounds 3, 6 and 7 were tested at 1 µM in the OXPHOS coupling protocol in the LEAK state. The OXPHOS coupling efficiency was calculated as: 1-Resp.rateLEAKstate/Resp.rateOXPHOSstate
The substrate-dependent flux control factor was calculated as: 1-Resp.ratebeforeadditionofrespectivesubstrate/Resp.rateafteradditionofrespectivesubstrate

[7] = Cytotoxicity assay (MTT), A7r5; type: cell-based, rat; settings: rat, A7r5 cells (vascular smooth muscle cells), normal cell line, mean ± S.D., 3 experiments
Protocol: as §1, §2

[8] = 1 µM, pyruvate-dependent OXPHOS state
[9] = titration, pyruvate + malate and glutamate + malate, OXPHOS

T1 sequence (P43490 whole entry): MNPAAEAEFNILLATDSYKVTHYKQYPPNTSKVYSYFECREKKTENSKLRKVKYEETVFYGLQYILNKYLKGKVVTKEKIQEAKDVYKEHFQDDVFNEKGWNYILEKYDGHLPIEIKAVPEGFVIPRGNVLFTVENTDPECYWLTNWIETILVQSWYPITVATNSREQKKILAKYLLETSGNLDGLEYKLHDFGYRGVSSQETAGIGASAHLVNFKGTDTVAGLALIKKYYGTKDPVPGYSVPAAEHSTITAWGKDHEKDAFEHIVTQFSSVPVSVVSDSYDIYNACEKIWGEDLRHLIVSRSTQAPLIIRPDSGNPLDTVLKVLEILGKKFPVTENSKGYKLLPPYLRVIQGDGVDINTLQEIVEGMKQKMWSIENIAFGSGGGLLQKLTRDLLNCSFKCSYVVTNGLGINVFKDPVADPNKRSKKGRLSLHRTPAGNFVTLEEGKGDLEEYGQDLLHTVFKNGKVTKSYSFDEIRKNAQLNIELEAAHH

For `OC1(c2[se][n+]3ccccc3c2Br)CCCCC1.[Cl-]` [Compound 3, 3-bromo-2-(1-hydroxycyclohexyl)-[1,2]selenazolo[2,3-a]pyridinium chloride], the IC50 at 48 h [1] was 390 ± 50 nM, the IC50 at 48 h [2] was 2200 ± 100 nM and the “decrease in NAD+ level” value (MCF-7 cells [3]) was 59%. For the same compound, the “decrease in NAD+/NADH ratio” value (MCF-7 cells [3]) was 38%, the “decrease in NADH level” value (MCF-7 cells [3]) was 33% and the “decrease in NMN levels” value (MCF-7 cells [4]) was 33%. For the same compound, the IC50 (MCF-7) was 500 ± 20 nM, the IC50 at 48 h [5] was 2910 ± 130 nM and the “reduction in NAMPT activity” value (NAMPT) was “slight decreases”. For the same compound, the IC50 (4T1; Mus musculus, 4T1, breast cancer cell line, MTT, 48 h, mean ± S.D., 3 experiments, read-out: Cytotoxicity, IC50, 4T1) was 44 ± 5 nM, the “selectivity towards tumor cell lines” value (4T1; comparing 4T1 to A7r5) was over 42 fold and the IC50 at 48 h [6] was 2210 ± 20 nM. For the same compound, the OXPHOS coupling efficiency (permeabilized 4T1 cells; 1 µM) was “significant decrease”, the “increase in H2O2/O ratio” value (permeabilized 4T1 cells; [8]) was “immediate significant increases” and the “increase in H2O2 production” value (permeabilized 4T1 cells; [8]) was “immediate significant increases”. The “mitochondrial function in the CII-linked OXPHOS state” value (permeabilized 4T1 cells; titration) was “no significant changes”, the “H2O2 production with complex I (NADH-linked) substrates” value (permeabilized 4T1 cells; [9]) was “increased” and the “mitochondrial respiration rate with complex I (NADH-linked) substrates” value (permeabilized 4T1 cells; [9]) was “inhibited”. The IC50 at 48 h [7] was 1850 ± 220 nM.
